Laboratory results reported in paper PMC11354745, “Discovery of Novel Amino Acids (Analogues)-Substituted Thiophene[3,2-d]pyrimidine Derivatives as Potent HIV-1 Non-Nucleoside Reverse Transcriptase Inhibitors: Design, Synthesis, and Biological Evaluation” (International Journal of Molecular Sciences, 2024).
Read-outs that look alike come from different tables or passages of the source.

How the values were obtained:
[1] = target: T1, WT HIV-1 RT (Human immunodeficiency virus type 1 group M subtype B, UniProt P03366); test: HIV-1 RT inhibition assay (Roche kit, ELISA); type: biochemical
T1 construct: viral nucleotides (dNTPs) and the HIV-1 RT enzyme in an incubation buffer; purchased Roche
Excerpt: An assay kit for HIV-1 reverse transcriptase (RT) from Roche was utilized to assess RT inhibition. The kit provided all necessary components for the RT reaction, and the enzyme-linked immunosorbent assay (ELISA) methodology for the inhibition assay was executed according to the kit’s instructions. […] Unbound dNTPs were washed away, and an anti-[…] (DIG)-POD working solution was introduced. […] Excess anti-DIG-POD was removed, and a peroxidase substrate (ABTS) solution was applied to the MTPs. […] The percentage of the inhibitory activity of the RT inhibitors was calculated by formula, as given below:
% Inhibition = [O.D. value with RT but without inhibitors − O.D. value with RT and inhibitors]/[O.D. value with RT […] − O.D. value without RT and inhibitors].

[2] = test system: HIV-1 double-mutant strain K103N+Y181C (RES056); test: microbe, parasite or virus in culture; type: cell-based; conditions: for EC50: Human immunodeficiency virus 1, MT4, read-out: EC50 RES056; for SI RES056: selectivity index, ratio CC50/EC50, RES056
Experimental: (§1) All the target compounds were first evaluated for their antiviral activity against HIV-1 wild-type (WT) strain (IIIB) and the double-mutant strain K103N+Y181C (RES056) in the MT-4 cell line, using the MTT method.
(§2) The antiviral potential and cytotoxic effects of the target compounds were assessed using the MTT assay in MT-4 cells, following established protocols. The HIV-1 (IIIB) strain, single mutant strains (L100I, K103N, Y181C, Y188L and E138K), double mutant strains (F227L + V106A and K103N + Y181C) and MT-4 cells were provided by the Rega Institute of Medicine at the University of Leuven, Belgium. These viral strains were propagated in MT-4 cells. […] The specific experimental procedures are detailed below.
(§3) Initially, concentrated solutions of the test compounds were prepared at 10-fold the final desired concentration and added to triplicate wells in 25 µL aliquots to assess their impacts on both mock and HIV-infected MT-4 cells. Using a Biomek 3000 robot, these were diluted in a 96-well flat-bottomed microplate by mixing with medium, creating a series of 5-fold steps down in concentration. Each test included control groups of untreated infected and mock-infected cells to establish baselines for comparison. […] These strains served to mimic both typical and resistant infections. Additionally, mock-infected wells received an equal volume of culture medium to assess the compounds’ impacts on uninfected cells, thereby determining cytotoxicity. MT-4 cells in the exponential growth phase were pelleted by centrifugation at 1000 rpm for 5 min, after which the supernatant was removed. The cells were resuspended to a density of 6 × 10^5 cells/mL, and 50 µL of this suspension was added to each well. Post-infection, on the fifth day, cell viability in both mock and infected conditions was measured via the MTT assay using a spectrophotometer.

[3] = test system: HIV-1 Y181C mutant strain; test: Anti-HIV activity in MT-4 cells (MTT method), Y181C; type: cell-based; conditions: Human immunodeficiency virus 1, MT4, read-out: EC50 Y181C
Excerpt: (§4) All the target compounds were first evaluated for their antiviral activity against HIV-1 wild-type (WT) strain (IIIB) and the double-mutant strain K103N+Y181C (RES056) in the MT-4 cell line, using the MTT method. The potent inhibitors were selected to assess their efficacy against other strains resistant to NNRTIs, including L100I, K103N, Y181C, Y188L, E138K and the double-mutant strain F227L+V106A. The approved drugs NVP, EFV and ETR were selected as reference drugs. The biological evaluation results of the test compounds, presented as EC50 (anti-HIV potency), CC50 (cytotoxicity) and SI (selectivity index, CC50/EC50 ratio), are summarized in Table 1 and Table 2.
(§5) The antiviral potential and cytotoxic effects of the target compounds were assessed using the MTT assay in MT-4 cells, following established protocols. The HIV-1 (IIIB) strain, single mutant strains (L100I, K103N, Y181C, Y188L and E138K), double mutant strains (F227L + V106A and K103N + Y181C) and MT-4 cells were provided by the Rega Institute of Medicine at the University of Leuven, Belgium. These viral strains were propagated in MT-4 cells. The MT-4 cells were cultured in RPMI-1640 medium supplemented with 20 mM HEPES buffer (Life Technologies, Grand Island, NY, USA), 10% (v/v) heat-inactivated fetal calf serum (FCS), 2 mM L-glutamine, 0.1% sodium bicarbonate, and 20 μg/mL gentamicin. Cultures were maintained at 37 °C in a 5% CO2 atmosphere. The specific experimental procedures are detailed below.
(§6) Initially, concentrated solutions of the test compounds were prepared at 10-fold the final desired concentration and added to triplicate wells in 25 µL aliquots to assess their impacts on both mock and HIV-infected MT-4 cells. Using a Biomek 3000 robot, these were diluted in a 96-well flat-bottomed microplate by mixing with medium, creating a series of 5-fold steps down in concentration. Each test included control groups of untreated infected and mock-infected cells to establish baselines for comparison. We introduced HIV-1 strains, both wild-type (IIIB) and drug-resistant variants harboring mutations L100I, K103N, Y181C, Y188L, E138K and F227L + V106A and the double mutant K103N + Y181C (RES056), at concentrations of 100–300 CCID50, into their respective wells. These strains served to mimic both typical and resistant infections. Additionally, mock-infected wells received an equal volume of culture medium to assess the compounds’ impacts on uninfected cells, thereby determining cytotoxicity. MT-4 cells in the exponential growth phase were pelleted by centrifugation at 1000 rpm for 5 min, after which the supernatant was removed. The cells were resuspended to a density of 6 × 10^5 cells/mL, and 50 µL of this suspension was added to each well. Post-infection, on the fifth day, cell viability in both mock and infected conditions was measured via the MTT assay using a spectrophotometer. The CC50 was identified as the concentration of the compound that caused a 50% reduction in the viability of the mock-infected cells, indicating cytotoxicity. Conversely, the EC50 represented the concentration that provided 50% protection against viral cytopathic effects in infected cells, signifying antiviral potency.

[4] = test system: HIV-1 Y188L mutant strain; test: Anti-HIV activity in MT-4 cells (MTT method), Y188L; type: cell-based; conditions: Human immunodeficiency virus 1, MT4, read-out: EC50 Y188L
Excerpt: as §4, §5, §6

[5] = test system: HIV-1 wild-type (WT) strain (IIIB); test: Anti-HIV activity in MT-4 cells (MTT method), HIV-1 IIIB; type: cell-based; conditions: for EC50: Human immunodeficiency virus 1, IIIB, MT4, read-out: EC50 IIIB; for SI IIIB: selectivity index, ratio CC50/EC50, IIIB
Experimental: as §1, §2, §3

[6] = test system: HIV-1 E138K mutant strain; test: Anti-HIV activity in MT-4 cells (MTT method), E138K; type: cell-based; conditions: for EC50: Human immunodeficiency virus 1, MT4, read-out: EC50 E138K
Excerpt: as §4, §5, §6

[7] = test system: HIV-1 K103N mutant strain; test: Anti-HIV activity in MT-4 cells (MTT method), K103N; type: cell-based; conditions: Human immunodeficiency virus 1, MT4, read-out: EC50 K103N
Excerpt: as §4, §5, §6

[8] = test system: HIV-1 double-mutant strain F227L+V106A; test: Anti-HIV activity in MT-4 cells (MTT method), F227L+V106A; type: cell-based; conditions: Human immunodeficiency virus 1, MT4, read-out: EC50 F227L/V106A
Excerpt: as §4, §5, §6

[9] = Cytotoxicity in mock-infected MT-4 cells (MTT method); type: cell-based; conditions: human, CC50
Experimental: as §5, §6

[10] = test system: HIV-1 L100I mutant strain; test: Anti-HIV activity in MT-4 cells (MTT method), L100I; type: cell-based; conditions: Human immunodeficiency virus 1, MT4, read-out: EC50 L100I
Excerpt: as §4, §5, §6

[11] = test system: HIV-1 wild-type (WT) and a panel of NNRTI-resistant strains; test: Anti-HIV activity in MT-4 cells (MTT method), WT and panel of NNRTI-resistant strains; type: cell-based
Excerpt: as §4
The antiviral potential and cytotoxic effects of the target compounds were assessed using the MTT assay in MT-4 cells, following established protocols. […]
Initially, concentrated solutions of the test compounds were prepared at 10-fold the final desired concentration and added to triplicate wells in 25 µL aliquots to assess their impacts on both mock and HIV-infected MT-4 cells. […] Post-infection, on the fifth day, cell viability in both mock and infected conditions was measured via the MTT assay using a spectrophotometer. […]

[12] = test system: MT-4 cells; test: Cytotoxicity in mock-infected MT-4 cells (MTT method); type: cell-based; conditions: human, 5 days
Experimental: as §5, §6

| SMILES | IC50 [1] | EC50 [2] | SI RES056 [2] | EC50 [3] | EC50 [4] | melting point | EC50 [5] | SI IIIB [5] | EC50 [6] | EC50 [7] | EC50 [8] | CC50 at 5 days [9] | EC50 [10] | fold superior to NVP, E138K ([6]; ratio of EC50 values against E138K, versus NVP) | EC50 ([11]; Human immunodeficiency virus 1, MT4, read-out: EC50 values against HIV-1 WT and a panel of NNRTI-resistant strains, range over strains, MT-4 cells) | EC50 ([11]; read-out: EC50 values against HIV-1 WT and a panel of NNRTI-resistant strains, range over strains, MT-4 cells) | CC50 [12] |
| --- | --- | --- | --- | --- | --- | --- | --- | --- | --- | --- | --- | --- | --- | --- | --- | --- | --- |
| Cc1cc(C#N)cc(C)c1Oc1nc(Nc2ccc(NC(=O)[C@@H](N)Cc3c[nH]cn3)cc2)nc2ccsc12 [5e] | 0.927 ± 0.064 µM | ≥ 4.88 µM | ≤5 | 2.58 ± 0.477 µM | 2.26 ± 0.733 µM | 158 to 160 °C | 0.052 ± 0.022 µM | 484 | 0.26 ± 0.075 µM | 0.035 ± 0.009 µM | 1.47 ± 0.979 µM | 25.1 ± 2.3 µM | 0.902 ± 0.311 µM |  |  |  |  |
| Cc1cc(C#N)cc(C)c1Oc1nc(Nc2ccc(NC(=O)[C@@H](N)Cc3ccccc3)cc2)nc2ccsc12 [5h] | 1.54 ± 0.119 µM | 8.47 ± 0.483 µM | 3 | 2.72 ± 0.422 µM | 2.39 ± 0.352 µM | 203 to 206 °C | 0.055 ± 0.012 µM | 429 | 0.679 ± 0.569 µM | 0.073 ± 0.016 µM | 2.11 ± 0.293 µM | 23.7 ± 0.521 µM | 1.83 ± 0.208 µM |  |  |  |  |
| Cc1cc(C#N)cc(C)c1Oc1nc(Nc2ccc(NC(=O)C3CCCN3)cc2)nc2ccsc12 (stereo not shown) [5k] | 1.12 ± 0.074 µM | 7.53 ± 0.28 µM | 4 | 1.85 ± 0.621 µM | 2.35 ± 0.057 µM | 227 to 230 °C | 0.054 ± 0.018 µM | 513 | 0.094 ± 0.022 µM | 0.031 ± 0.004 µM | 1.76 ± 0.686 µM | 27.9 µM | 0.601 ± 0.261 µM | ~1.9 fold | 0.042 to 7.53 µM | 0.031 to 2.35 µM | 27.9 ± 0.91 µM |
